Test results: ChEMBL document CHEMBL1201861, “Genomics of Drug Sensitity in Cancer screening data, Wellcome Trust Sanger Institute”

Legend:
Test in all cases: cells
MFE-280 = type: functional, cell-based, Homo sapiens; details: Homo sapiens, MFE-280;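 further: growth inhibition of MFE-280 cells, determined with a cell viability readout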
Description: SANGER: Inhibition of human MFE-280 cell growth in a cell viability assay.

HN = type: functional, cell-based, Homo sapiens; details: Homo sapiens, HN
Description: SANGER: Inhibition of human HN cell growth in a cell viability assay.

HCC38 = type: functional, cell-based, Homo sapiens; details: Homo sapiens, HCC38;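 further: cell viability assay on the human HCC38 cell line, with IC50 marking the concentration that inhibits cell growth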
Description: SANGER: Inhibition of human HCC38 cell growth in a cell viability assay.

KM-H2 = type: functional, cell-based; details: Homo sapiens;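 further: growth inhibition of KM-H2 cells, read out by a cell viability assay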
Description: SANGER: Inhibition of human KM-H2 cell growth in a cell viability assay.

ABC-1 = type: functional, cell-based, Homo sapiens; details: Homo sapiens, ABC-1;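 further: growth inhibition of human ABC-1 cells, read out by a cell viability assay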
Description: SANGER: Inhibition of human ABC-1 cell growth in a cell viability assay.

YAPC = type: functional, cell-based, Homo sapiens; details: Homo sapiens, YAPC;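 further: growth inhibition of YAPC cells, measured with a cell viability assay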
Description: SANGER: Inhibition of human YAPC cell growth in a cell viability assay.

CWR22R = type: functional, cell-based, Homo sapiens; details: Homo sapiens, 22Rv1;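 further: growth inhibition of 22Rv1 cells, read out with a cell viability assay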
Description: SANGER: Inhibition of human 22RV1 cell growth in a cell viability assay.

BV-173 = type: functional, cell-based; details: Homo sapiens
Description: SANGER: Inhibition of human BV-173 cell growth in a cell viability assay.

BB49-HNC = type: functional, cell-based, Homo sapiens; details: Homo sapiens, BB49-HNC;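 further: cell viability assay read-out, reported as inhibition of BB49-HNC cell growth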
Description: SANGER: Inhibition of human BB49-HNC cell growth in a cell viability assay.

NCI-H2347 = type: functional, cell-based, Homo sapiens; details: Homo sapiens, NCI-H2347;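 further: growth inhibition of the cell line, read out with a cell viability assay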
Description: SANGER: Inhibition of human NCI-H2347 cell growth in a cell viability assay.

NCI-H1792 = type: functional, cell-based, Homo sapiens; details: Homo sapiens, NCI-H1792;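 further: growth inhibition of human NCI-H1792 cells, read out as cell viability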
Description: SANGER: Inhibition of human NCI-H1792 cell growth in a cell viability assay.

DOHH-2 = type: functional, cell-based; details: Homo sapiens;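 further: growth inhibition of human DOHH-2 cells, read out with a cell viability assay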
Description: SANGER: Inhibition of human DOHH-2 cell growth in a cell viability assay.

KU-19-19 = type: functional, cell-based, Homo sapiens; details: Homo sapiens, KU-19-19
Description: SANGER: Inhibition of human KU-19-19 cell growth in a cell viability assay.

KYSE-410 = type: functional, cell-based, Homo sapiens; details: Homo sapiens, KYSE-410;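 further: growth inhibition of KYSE-410 cells, measured through a cell viability readout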
Description: SANGER: Inhibition of human KYSE-410 cell growth in a cell viability assay.

ES7 = type: functional, cell-based, Homo sapiens; details: Homo sapiens, ES7;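 further: growth inhibition of cultured human ES7 cells, read out as cell viability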
Description: SANGER: Inhibition of human ES7 cell growth in a cell viability assay.

SW756 = type: functional, cell-based, Homo sapiens; details: Homo sapiens, SW756;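 further: growth inhibition of human SW756 cells, read out with a cell viability assay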
Description: SANGER: Inhibition of human SW756 cell growth in a cell viability assay.

COLO-678 = type: functional, cell-based, Homo sapiens; details: Homo sapiens, COLO-678
Description: SANGER: Inhibition of human COLO-678 cell growth in a cell viability assay.

MHH-ES-1 = type: functional, cell-based, Homo sapiens; details: Homo sapiens, MHH-ES-1;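 further: cell growth inhibition measured by a cell viability assay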
Description: SANGER: Inhibition of human MHH-ES-1 cell growth in a cell viability assay.

LB1047-RCC = type: functional, cell-based, Homo sapiens; details: Homo sapiens, LB1047-RCC;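 further: inhibition of cell growth, determined with a cell viability assay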
Description: SANGER: Inhibition of human LB1047-RCC cell growth in a cell viability assay.

MLMA = type: functional, cell-based, Homo sapiens; details: Homo sapiens, MLMA;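 further: growth inhibition of MLMA cells (human), determined through a cell viability readout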
Description: SANGER: Inhibition of human MLMA cell growth in a cell viability assay.

Huh-7 = type: functional, cell-based, Homo sapiens; details: Homo sapiens, Huh-7;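 further: HuH-7 cell growth inhibition, read out with a cell viability assay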
Description: SANGER: Inhibition of human HuH-7 cell growth in a cell viability assay.

CGTH-W-1 = type: functional, cell-based, Homo sapiens; details: Homo sapiens, CGTH-W-1;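 further: growth inhibition of human CGTH-W-1 cells measured by cell viability assay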
Description: SANGER: Inhibition of human CGTH-W-1 cell growth in a cell viability assay.

SK-MEL-30 = type: functional, cell-based; details: Homo sapiens;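 further: growth inhibition of SK-MEL-30 cells, determined with a cell viability assay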
Description: SANGER: Inhibition of human SK-MEL-30 cell growth in a cell viability assay.

A204 = type: functional, cell-based, Homo sapiens; details: Homo sapiens, A204;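 further: growth inhibition of human A204 cells, read out with a cell viability assay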
Description: SANGER: Inhibition of human A204 cell growth in a cell viability assay.

SK-PN-DW = type: functional, cell-based; details: Homo sapiens;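 further: growth inhibition measured with a viability assay on these cells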
Description: SANGER: Inhibition of human SK-PN-DW cell growth in a cell viability assay.

OMC-1 = type: functional, cell-based, Homo sapiens; details: Homo sapiens, OMC-1;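 further: growth inhibition of the OMC-1 cell line, measured by a cell viability assay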
Description: SANGER: Inhibition of human OMC-1 cell growth in a cell viability assay.

HO-1-N-1 = type: functional, cell-based, Homo sapiens; details: Homo sapiens, HO-1-N-1;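 further: growth inhibition of human HO-1-N-1 cells, read out with a cell viability assay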
Description: SANGER: Inhibition of human HO-1-N-1 cell growth in a cell viability assay.

KINGS-1 = type: functional, cell-based, Homo sapiens; details: Homo sapiens, KINGS-1;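 further: cell viability assay measuring suppression of KINGS-1 cell growth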
Description: SANGER: Inhibition of human KINGS-1 cell growth in a cell viability assay.

EOL1 = type: functional, cell-based; details: Homo sapiens;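 further: growth inhibition of EoL-1 cells, read out by a cell viability assay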
Description: SANGER: Inhibition of human EoL-1-cell cell growth in a cell viability assay.

DSH1 = type: functional, cell-based, Homo sapiens; details: Homo sapiens, DSH1;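 further: growth inhibition of human DSH1 cells, measured with a cell viability readout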
Description: SANGER: Inhibition of human DSH1 cell growth in a cell viability assay.

NCI-H526 = type: functional, cell-based; details: Homo sapiens;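 further: growth inhibition of the human NCI-H526 cell line, measured by a cell viability assay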
Description: SANGER: Inhibition of human NCI-H526 cell growth in a cell viability assay.

U-87 MG = type: functional, cell-based, U-87MG ATCC; details: Homo sapiens;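 further: growth inhibition of the cells measured with a viability assay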
Description: SANGER: Inhibition of human U-87-MG cell growth in a cell viability assay.

COLO-792 = type: functional, cell-based, Homo sapiens; details: Homo sapiens, COLO-792
Description: SANGER: Inhibition of human COLO-792 cell growth in a cell viability assay.

NH-12 = type: functional, cell-based, Homo sapiens; details: Homo sapiens, NH-12;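 further: growth inhibition of NH-12 cells, read out with a cell viability assay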
Description: SANGER: Inhibition of human NH-12 cell growth in a cell viability assay.

COLO-829 = type: functional, cell-based, Homo sapiens; details: Homo sapiens, COLO-829
Description: SANGER: Inhibition of human COLO-829 cell growth in a cell viability assay.

OE19 = type: functional, cell-based, Homo sapiens; details: Homo sapiens, OE19;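 further: growth inhibition of OE19 cells, measured through a cell viability read-out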
Description: SANGER: Inhibition of human OE19 cell growth in a cell viability assay.

NB10 = type: functional, cell-based, Homo sapiens; details: Homo sapiens, NB10;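 further: growth inhibition of NB10 cells, read out by a cell viability assay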
Description: SANGER: Inhibition of human NB10 cell growth in a cell viability assay.

RH-1 = type: functional, cell-based, Homo sapiens; details: Homo sapiens, RH-1;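 further: growth inhibition of human RH-1 cells, read out with a cell viability assay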
Description: SANGER: Inhibition of human RH-1 cell growth in a cell viability assay.

ACN = type: functional, cell-based, Homo sapiens; details: Homo sapiens, ACN;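 further: growth inhibition of the human ACN cell line, read out via cell viability testing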
Description: SANGER: Inhibition of human ACN cell growth in a cell viability assay.

NCI-H1650 = type: functional, cell-based, Homo sapiens; details: Homo sapiens, NCI-H1650;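 further: growth inhibition of human NCI-H1650 cells measured by a cell viability assay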
Description: SANGER: Inhibition of human NCI-H1650 cell growth in a cell viability assay.

GI-1 = type: functional, cell-based, Homo sapiens; details: Homo sapiens, GI-1;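 further: growth inhibition of human GI-1 cells, measured with a cell viability readout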
Description: SANGER: Inhibition of human GI-1 cell growth in a cell viability assay.

TYK-nu = type: functional, cell-based, Homo sapiens; details: Homo sapiens, TYK-nu;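 further: growth inhibition of human TYK-nu cells, read out by a cell viability assay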
Description: SANGER: Inhibition of human TYK-nu cell growth in a cell viability assay.

SW 954 = type: functional, cell-based, Homo sapiens; details: Homo sapiens, SW 954;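 further: growth inhibition of SW954 human cancer cells, read out as cell viability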
Description: SANGER: Inhibition of human SW954 cell growth in a cell viability assay.

MFM-223 = type: functional, cell-based, Homo sapiens; details: Homo sapiens, MFM-223
Description: SANGER: Inhibition of human MFM-223 cell growth in a cell viability assay.

T-24 = type: functional, cell-based, Homo sapiens; details: Homo sapiens, T-24;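 further: growth inhibition of T-24 cells, read out with a cell viability assay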
Description: SANGER: Inhibition of human T-24 cell growth in a cell viability assay.

OVCAR-3 = type: functional, cell-based, Homo sapiens; details: Homo sapiens, OVCAR-3;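 further: growth inhibition of human OVCAR-3 cells, determined by a cell viability assay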
Description: SANGER: Inhibition of human OVCAR-3 cell growth in a cell viability assay.

HGC-27 = type: functional, cell-based, Homo sapiens; details: Homo sapiens, HGC-27;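 further: growth inhibition of human HGC-27 cells, read out in a cell viability assay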
Description: SANGER: Inhibition of human HGC-27 cell growth in a cell viability assay.

HCT-116 = type: functional, cell-based, Homo sapiens; details: Homo sapiens, HCT-116
Description: SANGER: Inhibition of human HCT-116 cell growth in a cell viability assay.

HuTu80 = type: functional, cell-based, Homo sapiens, HUTU-80; details: Homo sapiens, HuTu80;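 further: growth inhibition of HuTu80 human cells, determined with a cell viability readout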
Description: SANGER: Inhibition of human HUTU-80 cell growth in a cell viability assay.

MKN-45 = type: functional, cell-based, Homo sapiens; details: Homo sapiens, MKN-45;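 further: growth inhibition of human MKN-45 cells, measured with a cell viability assay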
Description: SANGER: Inhibition of human MKN45 cell growth in a cell viability assay.

K5 = type: functional, cell-based, Homo sapiens; details: Homo sapiens, K5
Description: SANGER: Inhibition of human K5 cell growth in a cell viability assay.

**Q.** Which results are given for `COc1cc(F)c(F)c(Nc2ccc(I)cc2F)c1NS(=O)(=O)C1(CC(O)CO)CC1` (stereo unspecified)?
**A.** IC50 (MFE-280): > 5 µM; IC50 (HN): 1.12 µM; IC50 (HCC38): > 5 µM; IC50 (KM-H2): > 5 µM; IC50 (ABC-1): > 5 µM; IC50 (YAPC): > 5 µM; IC50 (CWR22R): > 5 µM; IC50 (BV-173): 2.38 µM; IC50 (BB49-HNC): > 5 µM; IC50 (NCI-H2347): 0.868 µM; IC50 (NCI-H1792): 2.45 µM; IC50 (DOHH-2): > 5 µM; IC50 (KU-19-19): 0.366 µM; IC50 (KYSE-410): 3.35 µM; IC50 (ES7): > 5 µM; IC50 (SW756): 1.23 µM; IC50 (COLO-678): 2.11 µM; IC50 (MHH-ES-1): > 5 µM; IC50 (LB1047-RCC): 1.09 µM; IC50 (MLMA): > 5 µM; IC50 (Huh-7): 1.47 µM; IC50 (CGTH-W-1): 2.73 µM; IC50 (SK-MEL-30): > 5 µM; IC50 (A204): > 5 µM; IC50 (SK-PN-DW): > 5 µM; IC50 (OMC-1): > 5 µM; IC50 (HO-1-N-1): 0.591 µM; IC50 (KINGS-1): 2.69 µM; IC50 (EOL1): 0.399 µM; IC50 (DSH1): > 5 µM; IC50 (NCI-H526): > 5 µM; IC50 (U-87 MG): > 5 µM; IC50 (COLO-792): 0.761 µM; IC50 (NH-12): 1.2 µM; IC50 (COLO-829): 1.73 µM; IC50 (OE19): > 5 µM; IC50 (NB10): > 5 µM; IC50 (RH-1): > 5 µM; IC50 (ACN): 0.0651 µM; IC50 (NCI-H1650): > 5 µM; IC50 (GI-1): > 5 µM; IC50 (TYK-nu): 0.441 µM; IC50 (SW 954): > 5 µM; IC50 (MFM-223): > 5 µM; IC50 (T-24): > 5 µM; IC50 (OVCAR-3): > 5 µM; IC50 (HGC-27): > 5 µM; IC50 (HCT-116): 0.524 µM

**Q.** Which results are given for `COC(=O)CNC(=O)C(=O)OC`?
**A.** IC50 (HuTu80): 1260 µM; IC50 (MFE-280): 1030 µM; IC50 (HN): 1030 µM; IC50 (HCC38): 1740 µM; IC50 (KM-H2): > 4000 µM; IC50 (ABC-1): 447 µM; IC50 (YAPC): > 4000 µM; IC50 (CWR22R): 304 µM; IC50 (BV-173): 234 µM; IC50 (BB49-HNC): 611 µM; IC50 (NCI-H2347): 121 µM; IC50 (NCI-H1792): 706 µM; IC50 (DOHH-2): 281 µM; IC50 (KU-19-19): 1010 µM; IC50 (KYSE-410): 20.8 µM; IC50 (ES7): 478 µM; IC50 (SW756): 138 µM; IC50 (COLO-678): 2000 µM; IC50 (MHH-ES-1): 115 µM; IC50 (LB1047-RCC): 50 µM; IC50 (MLMA): 46.3 µM; IC50 (Huh-7): 61.7 µM; IC50 (CGTH-W-1): 489 µM; IC50 (SK-MEL-30): 626 µM; IC50 (A204): 398 µM; IC50 (MKN-45): > 4000 µM; IC50 (SK-PN-DW): 215 µM; IC50 (OMC-1): 249 µM; IC50 (HO-1-N-1): 1070 µM; IC50 (KINGS-1): 585 µM; IC50 (EOL1): 122 µM; IC50 (DSH1): 96.2 µM; IC50 (NCI-H526): 536 µM; IC50 (U-87 MG): 147 µM; IC50 (COLO-792): > 4000 µM; IC50 (NH-12): > 4000 µM; IC50 (COLO-829): 111 µM; IC50 (OE19): > 4000 µM; IC50 (NB10): 524 µM; IC50 (RH-1): 1360 µM; IC50 (ACN): 128 µM; IC50 (K5): 160 µM; IC50 (NCI-H1650): 329 µM; IC50 (GI-1): 146 µM; IC50 (SW 954): 85.4 µM; IC50 (MFM-223): > 4000 µM; IC50 (T-24): > 4000 µM; IC50 (OVCAR-3): 206 µM; IC50 (HGC-27): 188 µM; IC50 (HCT-116): 658 µM

**Q.** `COc1ccc(-c2ccc3c(N4CCOC[C@@H]4C)nc(N4CCOC[C@@H]4C)nc3n2)cc1CO` [AZD-8055] was tested. Which IC50 (MFE-280) did it give?
**A.** 0.43 µM

**Q.** What about the IC50 (HN) of the same compound?
**A.** 1.9 µM

**Q.** What about the IC50 (HCC38) of the same compound?
**A.** > 2 µM

**Q.** What about the IC50 (KM-H2) of the same compound?
**A.** 1.56 µM

**Q.** And the IC50 (ABC-1)?
**A.** > 2 µM

**Q.** What about the IC50 (YAPC) of the same compound?
**A.** > 2 µM

**Q.** What about the IC50 (CWR22R) of the same compound?
**A.** 0.707 µM

**Q.** And the IC50 (BV-173)?
**A.** 0.0906 µM

**Q.** What about the IC50 (BB49-HNC) of the same compound?
**A.** 1.75 µM

**Q.** And the IC50 (NCI-H2347)?
**A.** 0.824 µM

**Q.** What about the IC50 (NCI-H1792) of the same compound?
**A.** 0.971 µM

**Q.** What about the IC50 (DOHH-2) of the same compound?
**A.** 0.793 µM

**Q.** And the IC50 (KU-19-19)?
**A.** 0.851 µM

**Q.** And the IC50 (KYSE-410)?
**A.** 1.27 µM

**Q.** And the IC50 (ES7)?
**A.** 0.274 µM

**Q.** What about the IC50 (SW756) of the same compound?
**A.** > 2 µM

**Q.** And the IC50 (COLO-678)?
**A.** > 2 µM

**Q.** What about the IC50 (MHH-ES-1) of the same compound?
**A.** 0.835 µM

**Q.** What about the IC50 (LB1047-RCC) of the same compound?
**A.** 0.34 µM

**Q.** What about the IC50 (MLMA) of the same compound?
**A.** > 2 µM

**Q.** And the IC50 (Huh-7)?
**A.** 0.434 µM

**Q.** And the IC50 (CGTH-W-1)?
**A.** 1.56 µM

**Q.** What about the IC50 (SK-MEL-30) of the same compound?
**A.** > 2 µM

**Q.** What about the IC50 (A204) of the same compound?
**A.** 0.19 µM

**Q.** And the IC50 (SK-PN-DW)?
**A.** 1.76 µM

**Q.** And the IC50 (OMC-1)?
**A.** 0.727 µM

**Q.** What about the IC50 (HO-1-N-1) of the same compound?
**A.** 0.681 µM

**Q.** What about the IC50 (KINGS-1) of the same compound?
**A.** > 2 µM

**Q.** What about the IC50 (EOL1) of the same compound?
**A.** 0.0657 µM

**Q.** And the IC50 (DSH1)?
**A.** > 2 µM

**Q.** And the IC50 (NCI-H526)?
**A.** > 2 µM

**Q.** And the IC50 (U-87 MG)?
**A.** > 2 µM

**Q.** And the IC50 (COLO-792)?
**A.** > 2 µM

**Q.** What about the IC50 (NH-12) of the same compound?
**A.** 1.11 µM

**Q.** What about the IC50 (COLO-829) of the same compound?
**A.** > 2 µM

**Q.** And the IC50 (OE19)?
**A.** > 2 µM

**Q.** What about the IC50 (NB10) of the same compound?
**A.** > 2 µM

**Q.** And the IC50 (RH-1)?
**A.** 1.57 µM

**Q.** And the IC50 (ACN)?
**A.** 0.943 µM

**Q.** And the IC50 (NCI-H1650)?
**A.** > 2 µM

**Q.** And the IC50 (GI-1)?
**A.** > 2 µM

**Q.** What about the IC50 (TYK-nu) of the same compound?
**A.** 0.319 µM

**Q.** And the IC50 (SW 954)?
**A.** > 2 µM

**Q.** What about the IC50 (MFM-223) of the same compound?
**A.** 0.426 µM

**Q.** What about the IC50 (T-24) of the same compound?
**A.** > 2 µM

**Q.** And the IC50 (OVCAR-3)?
**A.** > 2 µM

**Q.** What about the IC50 (HGC-27) of the same compound?
**A.** 0.264 µM

**Q.** What about the IC50 (HCT-116) of the same compound?
**A.** 1.43 µM
